Columns and labels:
Experiment in all cases: Number of living cells counted by flow cytometry (FACSort) after D1R agonist
Format in all cases: cell-based
Conditions in all cases: 10^−3M-10^−6M, 3 days
[1] = tested on: Human T-cell leukemia (Jurkat) cells
Protocol: Afterwards, the microtiter plates were placed in an incubator (37° C., humidified incubator, 5% CO2) for 3 days. Then, the number of living cells was evaluated by flow cytometry (the cells were counted by FACsort for a fixed time length of 1 min, in which 100 microliter of each sample was tested). Of note, A 77636 hydrochloride is an orally-active D1R agonist, according to the manufacturer (Tocris).
(§1) Afterwards, the microtiter plates were placed in an incubator (37° C., humidified incubator, 5% CO2) for 3 days. Then, the number of living cells was evaluated by flow cytometry (the cells were counted by FACsort for a fixed time length of 1 min, in which 100 microliter of each sample was tested).
(§2) The experiment was designed to test the effect of exposing the cells to the D1R agonist for 1 min, 15 min, 1 hr or 72 hr. Thus, 1 min, or 15 min or 1 hr after the addition of the D1R agonist, the corresponding cells were transferred into tubes, centrifuged (1000 rpm for 10 min); and the supernatant was removed. […] Thus, its medium was not replaced, and these cells and remained as such in the incubator for 72 hr. At the end of the 72 hr incubation, the number of living cells was evaluated by flow cytometry (the cells were counted by FACsort for a fixed time length of 1 min, in which 100 microliter of each sample was tested).
(§3) Cell viability was tested afterwards.
(§4) For this purpose, the Jurkat T-cell leukemia line, the HuT-78 human T-lymphoma (cutaneous “Sezary” T-lymphoma) line, and the K-562 human Chronic-Myeloid Leukemia (CML) and Daudi Human B-lymphoma (Burkitt's lymphoma) lines were seeded in tissue culture wells (0.5 million cells/0.5 ml/well).
(§5) Cell survival/death was evaluated 3 days later by counting the number of living cells, using flow cytometry.

[2] = tested on: Human cutaneous Sezary T-lymphoma cells (HuT-78)
Protocol: (§6) Human cutaneous Sezary T-lymphoma cells (HUT-78) were seeded in 96 well plates (0.5 ml per well of 0.5 million cells/ml) and A 77636 hydrochloride was added and diluted 1:00 into the wells at starting concentrations of 10^−1M-10^−4M, so that the final concentration range tested was 10^−3M-10^−6M. Afterwards, the microtiter plates were placed in an incubator (37° C., humidified incubator, 5% CO2) for 3 days. Then, the number of living cells was evaluated by flow cytometry (the cells were counted by FACsort for a fixed time length of 1 min, in which 100 microliter of each sample was tested).
(§7) Human cutaneous Sezary T-lymphoma cells (HUT-78) were seeded in 96 well plates (0.5 ml per well of 0.5 million cells/ml) and A 68930 hydrochloride was added and diluted 1:00 into the wells at starting concentrations of 10^−1M-10^−4M, so that the final concentration range tested was 10^−3M-10^−6M. Afterwards, the microtiter plates were placed in an incubator (37° C., humidified incubator, 5% CO2) for 3 days. Then, the number of living cells was evaluated by flow cytometry (the cells were counted by FACsort for a fixed time length of 1 min, in which 100 microliter of each sample was tested).
(§8) Human cutaneous Sezary T-lymphoma cells (HUT-78) were seeded in 96 well plates (0.5 ml per well of 0.5 million cells/ml) and SKF 38393 hydrobromide was added and diluted 1:00 into the wells at starting concentrations of 10^−1M-10^−4M, so that the final concentration range tested was 10^−3M-10^−6M. Afterwards, the microtiter plates were placed in an incubator (37° C., humidified incubator, 5% CO2) for 3 days. Then, the number of living cells was evaluated by flow cytometry (the cells were counted by FACsort for a fixed time length of 1 min, in which 100 microliter of each sample was tested).
Cell viability was tested afterwards. […]
as §5

[3] = tested on: Human chronic myelogenous leukemia cells (CML) (K-562)
Protocol: as §6, with “chronic myelogenous leukemia” for “cutaneous Sezary T-lymphoma”, “(CML) (K-562)” for “(HUT-78)”
as §7, with “chronic myelogenous leukemia” for “cutaneous Sezary T-lymphoma”, “(CML) (K-562)” for “(HUT-78)”
as §8, with “chronic myelogenous leukemia” for “cutaneous Sezary T-lymphoma”, “(CML) (K-562)” for “(HUT-78)”
as §2, with “Human chronic myelogenous leukemia cells (CML) (K-562) were seeded in 96 well plates (0.5 ml per well of 0.5 million cells/ml) and A 77636 hydrochloride was added and diluted 1:00 into the wells, at a fixed starting concentration of 10^−2M, so that the final concentration tested was 10^−4M. The” for “The”, “min),” for “min);”
as §3, §4, §5
(§9) The effect of dopamine itself (that can of course activate all its D1R-5 receptors) was also tested. All of these molecules were tested at a similar concentration (10^−4 M). […] The specificity and restriction of the effect to the D1R is also seen in Tables 7 and 8.

[4] = tested on: Human Burkitt's B-lymphoma cells (Daudi)
Protocol: Human Burkitt's B-lymphoma cells (Daudi) were seeded in 96 well plates (0.5 ml per well of 0.5 million cells/ml) and A 77636 hydrochloride was added and diluted 1:00 into the wells at starting concentrations of 10^−1M-10^−4M, so that the final concentration range tested was 10^−3M-10^−6M. […] Then, the number of living cells was evaluated by flow cytometry (the cells were counted by FACsort for a fixed time length of 1 min, in which 100 microliter of each sample was tested).
Human Burkitt's B-lymphoma cells (Daudi) were seeded in 96 well plates (0.5 ml per well of 0.5 million cells/ml) and A 68930 hydrochloride was added and diluted 1:00 into the wells at starting concentrations of 10^−1M-10^−4M, so that the final concentration range tested was 10^−3M-10^−6M. […] Then, the number of living cells was evaluated by flow cytometry (the cells were counted by FACsort for a fixed time length of 1 min, in which 100 microliter of each sample was tested).
[…] Then, the number of living cells was evaluated by flow cytometry (the cells were counted by FACsort for a fixed time length of 1 min, in which 100 microliter of each sample was tested).
as §3, §9

[5] = tested on: Human Burkitt's B-cell lymphoma (Raji) cells
Protocol: as §1, §3

[6] = tested on: resting normal human T-cells
Protocol: as §1
FIGS. 31A and B are graphs showing that A 77636 hydrochloride kills much more TCR-activated (FIG. 31B) than resting normal (FIG. 31A) human T-cells. […] The cells were then transferred to the incubator for 72 hr incubation. At the end of the 72 hr incubation, the number of living cells in each well was evaluated by flow cytometry (the cells were counted by FACsort for a fixed time length of 1 min, in which 100 microliter of each sample was tested).
as §3

`Br.Oc1cc2c(cc1O)C(c1ccccc1)CNCC2` (racemic) [SKF 38393 hydrobromide, (±)-1-phenyl-2,3,4,5-tetrahydro-(1H)-3-benzazepine-7,8-diol hydrobromide] was tested, and the “Cell death by number of living cells (FIGS. 10-12), in words” value [1] was “induces marked cell death”, the “Cell death by number of living cells (FIGS. 13-15), in words” value [2] was “induces marked cell death” and the “Cell death by number of living cells (FIGS. 22-24), in words” value [3] was “induces marked cell death”. For the same compound, the “Cell death by number of living cells (FIGS. 16-18), in words” value [4] was “induces marked cell death”, the “Cell death by number of living cells (FIGS. 19-21), in words” value [5] was “induces marked cell death” and the “Killing effect by number of living cells (FIGS. 25-27), in words” value [6] was “significantly milder killing effect”.

Reference: patent publication US20080311657A1, “Killing Human Lymphoma and Leukemia Cancer Cells and Tcr-Activated Normal Human Cells By Dopamine D1r Agonists” (priority 2005, published 2008)
